From patent US20080200531A1, “CDKI pathway inhibitors as inhibitors of tumor cell growth” (priority 2006, published 2008)

Tests used:
[1] = Range Finder Study (acute toxicity, MTD) in NCr nude mice; format: in vivo; settings: for impact on White Blood Cell count, first iteration: up to 17.6 mg/kg intravenously; for impact on White Blood Cell count, second iteration / toxicity in the Range Finder Study: up to 70.4 mg/kg intravenously
Description: Male NCr nude mice, aged approximately 6-8 weeks were used for the study, which was carried out as a service by Taconic Biotechnology, Rensselaer, N.Y. Animals were maintained under virus free barrier conditions with continuous health monitoring. The administration of test materials, all data collection and disposal of study animals was in compliance with all relevant Taconic Biotechnology Standard Operating Procedures as well as The Guide for the Care and Use of Laboratory Animals. Study animals were observed upon arrival and daily throughout the study for overall health, behavior and morbidity. Test animals were subject to body weight measurement to determine dosage volumes of test articles.
The initial part of this analysis was a Range Finder Study, designed to evaluate acute toxicity and to identify the maximum tolerated dose (MTD) for therapeutic study. The Range Finder Study was performed twice. For the first iteration, 30 mice were injected intravenously with SNX9 and SNX9-1 in groups of 3 with phosphate buffered saline (PBS) only, 2.2 mg/kg SNX9, 4.4 mg/kg SNX9 8.8 mg/kg SNX9, 17.6 mg/kg SNX9, 80% PBS: 20% DMSO, 2.2 mg/kg SNX9-1, 4.4 mg/kg SNX9-1 8.8 mg/kg SNX9-1, 17.6 mg/kg SNX9-1. SNX9 was dissolved in PBS and SNX9-1 was dissolved in 80% PBS:20% DMSO. The volume injected per animal was approximately 0.1 ml/injection. […] All other animals appeared healthy and thrived for the duration of the 3 day period of observation, and their general health and body weight were assessed. For all the mice, there was no significant weight change (see Table 4). At the end of the 3 day observation period all the mice were euthanized and a terminal blood sample was collected via cardiac puncture. These blood samples were analyzed for complete blood count evaluation. […] A slight elevation of Red Blood Cell count was detected in approximately half of the groups, although this elevation was less than a 7% increase above the upper reference range and was not considered significant. All other blood count categories placed within the reference range.
For the second iteration, 24 mice were injected intravenously with SNX9 and SNX9-1 in groups of 3 with PBS only, 17.6 mg/kg SNX9, 35.2 mg/kg SNX9, 70.4 mg/kg SNX9, 80% PBS:20% DMSO, […] SNX9-1, 35.2 mg/kg SNX9-1, 70.4 mg/kg SNX9-1. […] All other animals were healthy for the duration of the 3 day period during which the animals were observed and their general health and body weight were assessed. For all the mice, there was no significant weight change (see Table 4). The average beginning weight for the mice in the second iteration was 23.7 g±1.73. After the 3 day observation period all the mice were euthanized and a terminal blood sample was collected via cardiac puncture. These blood samples were analyzed for complete blood count evaluation. […] A slight elevation of Red Blood Cell count was detected in approximately 7 out of eight of the groups, although this elevation was less than a 6% increase above the upper reference range and was not considered significant. All other blood count categories placed within the reference range.

[2] = Plasma level of SNX9 one hour after IV injection, HPLC analysis; format: in vivo; settings: NCr nude, mouse, one hour after IV injection of 70 mg/kg, two mice
Description: In order to determine the ability of SNX9 to remain in the blood of mice at detectable levels, we analyzed its plasma level one hour after IV injection. Two control mice were uninjected, and two mice were injected IV with 70 mg/kg SNX9 (dissolved in PBS). After one hour, the mice were euthanized and the blood collected by cardiac puncture. After plasma was prepared from the whole blood it was frozen and stored at −70° C. The frozen plasma was thawed and 100 μl was cleared of plasma protein by precipitation with 4 volumes of 100% ethanol at −20° C. for one hour. Under these conditions, SNX9 is recovered quantitatively in the ethanol soluble fraction with a minimum of plasma contamination.
The first assay was HPLC analysis. For this assay, the ethanol soluble fraction was dried under vacuum and re-dissolved in 100 μl 30% acetonitrile 0.1% trifluoroacetic acid (TFA). 4 μl of the ethanol extracted SNX9 was applied to a C18 HPLC column and eluted isocratically using a buffer of 30% acetonitrile 0.1% TFA at a flow rate of 0.3 ml/min. The elution of SNX9 was monitored at its absorption maximum wavelength of 280 nm. […]
The second assay was a biological test for cytotoxicity. […] After 72 hours the growth inhibition was measured by Hoechst staining of the cell lysate in each well of the 96 well tissue culture plate, prepared as previously described.

[3] = system: HCT116 colon carcinoma; assay: 3-day growth inhibition assay (Hoechst 33342), HCT116; format: cell-based; settings: Homo sapiens, HCT-116, 72 h, 3 days, read-out: growth inhibition (decrease in cell number relative to untreated cells)
Description: (§1) The assays were carried out in 96-well plates, in triplicates; the plated cell numbers for each cell line were determined in preliminary experiments to assure exponential growth over the 3-day period of the assay. The cell numbers were measured by staining DNA of attached cells with Hoechst 33342, and the results for each dose were expressed as the decrease in cell number relative to untreated cells. For some of the tumor/normal cell line combinations, the assays were repeated using CellTiter-Glo viability assay (Promega), with the same results.

[4] = system: CDKI-responsive endogenous genes induced by p16; assay: Q-PCR of CDKI-responsive endogenous genes, HT1080 cells with IPTG-inducible p16; format: cell-based, human; settings: 10 μM SNX9; normalized to β-actin
Description: For this purpose, we developed real-time RT-PCR (Q-PCR) assays for measuring RNA levels of eleven CDKI-responsive genes. This assay uses a 96-well TurboCapture RNA extraction kit (Qiagen), in which oligo(dT) is covalently bound to the surface of the wells to allow mRNA isolation from cell lysate and cDNA synthesis in the same wells. 5 units/μl of SuperScript III reverse transcriptase (Invitrogen) was added to the wells for 1 hr for cDNA synthesis at 50° C., and 2 μl of the resulting cDNA was then used for Q-PCR analysis using SYBR Green PCR Master Mix (ABI) with ABI 7900HT Q-PCR machine.
This effect argues that the molecular target of these compounds is not a specific CDKI but rather a common downstream mediator of the transcription-inducing effects of different CDKI.

[5] = system: HMEC primary cultures, MCF-7 and MDA231; assay: 3-day growth inhibition assay (Hoechst 33342), normal mammary epithelial cells vs breast carcinoma lines; settings: 3-day assay; HMEC vs MCF-7 and MDA231
Description: as §1

SMILES | deaths, first iteration ([1]; 2.2 mg/kg (lowest dose) group of 3, intravenously, day one, apparently due to shock) | impact on White Blood Cell count, first iteration [1] | impact on White Blood Cell count, second iteration [1] | toxicity in the Range Finder Study [1] | concentration at 1 h [2] | inhibition at 5 µM [3] | deaths, second iteration ([1]; 70.4 mg/kg group of 3, intravenously, shortly after dosing, likely due to shock and not compound toxicity) | induction of CDKI-responsive endogenous genes by p16 (ratio of RNA levels with and without IPTG) [4] | tumor selectivity of growth inhibition, normal vs transformed mammary cells [5]
NCCc1c[nH]c2c(Cl)cc(Cl)cc12 [SNX9-1] | One animal died on day one | neither SNX9 nor SNX9-1 had a detectable impact on White Blood Cell count | neither SNX9 nor SNX9-1 had a detectable impact on White Blood Cell count | complete lack of toxicity | – | – | – | – | –
Cc1[nH]c2c(Cl)cccc2c1CCN [SNX9] | – | neither SNX9 nor SNX9-1 had a detectable impact on White Blood Cell count | neither SNX9 nor SNX9-1 had a detectable impact on White Blood Cell count | complete lack of toxicity | ~250 µM | ~100% | One animal died shortly after dosing | partially inhibit the induction of all the tested genes | clear tumor selectivity
